# Test results taken from article PMC7588595, “Small-molecule active pharmaceutical ingredients of approved cancer therapeutics inhibit human aspartate/asparagine-β-hydroxylase” (Bioorganic & Medicinal Chemistry, 2020).
# Where a name gives a salt, the structure may show the parent alone. Read-outs that look alike come from different tables or passages of the source. Starred links: 1 amine or outer side, 2 acyl side, 3 side chain; linkers in the order of their positions; H or OH if unused. Positions of bridges follow the written chain, without caps; N, C: chain ends. Non-standard residues stand in square brackets, D forms with d. Residues, ends and D or L forms follow the SMILES beside them. Chains are numbered I, II in the order given. Actinocin(9to1) = Cc1c2oc3c(C)ccc(C(=O)[*:1])c3nc-2c(C(=O)[*:2])c(N)c1=O; NMeV = CN[C@H](C(=O)O)C(C)C; Sar = CNCC(=O)O
# Target: T1, human AspH (His6-AspH315–758) (Homo sapiens, UniProt Q12797)
# T1 construct: N-Terminally His6-tagged human AspH315–758 (His6-AspH315–758) was produced in Escherichia coli BL21 (DE3) cells; made in house; host or cells: Escherichia coli BL21 (DE3), pET-28a(+) vector
# T1 sequence (Q12797 315-758): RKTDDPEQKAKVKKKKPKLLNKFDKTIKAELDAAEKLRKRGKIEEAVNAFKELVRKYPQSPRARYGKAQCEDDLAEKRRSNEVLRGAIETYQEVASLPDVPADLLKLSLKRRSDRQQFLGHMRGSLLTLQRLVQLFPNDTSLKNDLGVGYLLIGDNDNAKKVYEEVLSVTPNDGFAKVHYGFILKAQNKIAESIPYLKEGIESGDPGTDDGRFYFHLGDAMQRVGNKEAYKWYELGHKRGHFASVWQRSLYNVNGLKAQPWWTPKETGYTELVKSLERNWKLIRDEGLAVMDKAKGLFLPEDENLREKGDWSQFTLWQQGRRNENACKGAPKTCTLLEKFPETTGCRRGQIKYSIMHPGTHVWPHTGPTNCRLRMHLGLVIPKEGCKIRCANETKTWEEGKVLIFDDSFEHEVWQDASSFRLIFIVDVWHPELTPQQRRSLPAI
# Experiment: SPE-MS AspH inhibition assay (hFX-CP101-119 substrate hydroxylation)
# Assay type: biochemical
# [1] = AspH-inhibitor screening, 384-well Plate 1
# [2] = AspH-inhibitor screening, 384-well Plate 1, substrate conversion
# [3] = AspH-inhibitor screening, Plate 1-duplicate
# [4] = AspH-inhibitor screening, Plate 1-duplicate, substrate conversion
Plate 1 (% inhibition) [1] [%],Plate 1 (% conversion) [2] [%],Plate 1-duplicate (% inhibition) [3] [%],Plate 1-duplicate (% conversion) [4] [%],SMILES,Plate 1 (% conversion) [%],Plate 1 (% inhibition) [%],Plate 1-duplicate (% conversion) [%],Plate 1-duplicate (% inhibition) [%]
-68.38,81.33,-15.02,59.49,COc1cc2ncnc(Nc3ccc(F)c(Cl)c3)c2cc1NC(=O)/C=C/CN1CCCCC1.O [Dacomitinib (monohydrate) (PF-00299804)],,,,
14.63,43.00,7.26,48.44,CC(=O)N(O)CCCCCNC(=O)CCC(=O)N(O)CCCCCNC(=O)CCC(=O)N(O)CCCCCN [Deferoxamine mesylate],,,,
0.59,49.48,1.33,51.38,C[C@@H]1C[C@H]2[C@@H]3CCC4=CC(=O)C=C[C@]4(C)[C@@]3(F)[C@@H](O)C[C@]2(C)[C@@]1(O)C(=O)CO [Dexamethasone (Decadron)],,,,
1.39,49.11,2.62,50.74,CCc1cnn2c(NCc3ccc[n+]([O-])c3)cc(N3CCCC[C@H]3CCO)nc12 [Dinaciclib (SCH727965)],,,,
-5.60,52.34,2.03,51.03,CC(=O)O[C@@]12CO[C@@H]1C[C@H](O)[C@@]1(C)C(=O)[C@H](O)C3=C(C)[C@@H](OC(=O)[C@H](O)[C@@H](NC(=O)OC(C)(C)C)c4ccccc4)C[C@@](O)([C@@H](OC(=O)c4ccccc4)[C@H]21)C3(C)C [Docetaxel],,,,
3.55,48.11,3.19,50.46,CN1CCC(COc2cnc(-c3cccc(Cn4nc(-c5cccc(C#N)c5)ccc4=O)c3)nc2)CC1 [EMD1214063],,,,
-5.93,52.49,-4.09,54.07,Nc1ccccc1NC(=O)c1ccc(CNC(=O)OCc2cccnc2)cc1 [Entinostat],,,,
-2.61,50.95,-6.89,55.46,CNC(=O)c1ccc(N2C(=S)N(c3ccc(C#N)c(C(F)(F)F)c3)C(=O)C2(C)C)cc1F [Enzalutamide],,,,
-0.43,49.95,-2.73,53.40,COc1cc([C@@H]2c3cc4c(cc3[C@@H](O[C@@H]3O[C@@H]5CO[C@@H](C)O[C@H]5[C@H](O)[C@H]3O)[C@H]3COC(=O)[C@H]23)OCO4)cc(OC)c1O [Etoposide],,,,
-18.20,58.15,-27.79,65.82,CO[C@H]1C[C@@H]2CC[C@@H](C)[C@@](O)(O2)C(=O)C(=O)N2CCCC[C@H]2C(=O)O[C@H]([C@H](C)C[C@@H]2CC[C@@H](OCCO)[C@H](OC)C2)CC(=O)[C@H](C)/C=C(\C)[C@@H](O)[C@@H](OC)C(=O)[C@H](C)C[C@H](C)/C=C/C=C/C=C/1C [Everolimus],,,,
-2.23,50.78,-2.68,53.37,C=CC[C@@H]1/C=C(\C)C[C@H](C)C[C@H](OC)[C@H]2O[C@@](O)(C(=O)C(=O)N3CCCC[C@H]3C(=O)O[C@H](/C(C)=C/[C@@H]3CC[C@@H](O)[C@H](OC)C3)[C@H](C)[C@@H](O)CC1=O)[C@H](C)C[C@@H]2OC.O [FK 506_Tacrolimus],,,,
2.15,48.76,-6.78,55.40,Cl.O=C(/C=C/c1cccnc1)NCCCCC1CCN(C(=O)c2ccccc2)CC1 [FK-866 HCl_Daporinad],,,,
-3.25,51.25,5.03,49.55,CC(C)(C)NC(=O)[C@H]1CC[C@H]2[C@@H]3CC[C@H]4NC(=O)C=C[C@]4(C)[C@H]3CC[C@]12C [Finasteride],,,,
0.74,49.41,5.87,49.13,O=c1[nH]c(=O)n([C@H]2C[C@H](O)[C@@H](CO)O2)cc1F [Floxuridine],,,,

# Second part, the compound before the results:
SMILES,Plate 1 (% inhibition) [1] [%],Plate 1 (% conversion) [2] [%],Plate 1-duplicate (% inhibition) [3] [%],Plate 1-duplicate (% conversion) [4] [%],Plate 1 (% conversion) [%],Plate 1 (% inhibition) [%],Plate 1-duplicate (% conversion) [%],Plate 1-duplicate (% inhibition) [%]
CC(C)(C)c1nc(-c2cccc(NS(=O)(=O)c3c(F)cccc3F)c2F)c(-c2ccnc(N)n2)s1.CS(=O)(=O)O [Dabrafenib Mesylate],21.60,39.78,12.13,46.02,,,,
CN(C)/N=N/c1[nH]cnc1C(N)=O [Dacarbazine],-0.11,49.80,7.93,48.11,,,,
"Cc1c2oc3c(C)ccc(C(=O)N[C@@H]4C(=O)N[C@H](C(C)C)C(=O)N5CCC[C@H]5C(=O)N(C)CC(=O)N(C)[C@@H](C(C)C)C(=O)O[C@@H]4C)c3nc-2c(C(=O)N[C@@H]2C(=O)N[C@H](C(C)C)C(=O)N3CCC[C@H]3C(=O)N(C)CC(=O)N(C)[C@@H](C(C)C)C(=O)O[C@@H]2C)c(N)c1=O [Dactinomycin] (I: T[dV]P[Sar][NMeV] / II: T[dV]P[Sar][NMeV]; ester I:1-I:C, II:1-II:C; linker I:N-II:N via Actinocin(9to1))",-0.066,49.78,-9.41,56.71,,,,
Cc1nc(Nc2ncc(C(=O)Nc3c(C)cccc3Cl)s2)cc(N2CCN(CCO)CC2)n1 [Dasatinib],-20.82,59.36,-21.12,62.52,,,,
COc1cccc2c1C(=O)c1c(O)c3c(c(O)c1C2=O)C[C@@](O)(C(C)=O)C[C@@H]3O[C@H]1C[C@H](N)[C@H](O)[C@H](C)O1 [Daunorubicin hydrochloride],-28.45,62.89,-40.01,71.89,,,,
Nc1ncn([C@H]2C[C@H](O)[C@@H](CO)O2)c(=O)n1 [Decitabine (Dacogen)],4.17,47.83,0.31,51.89,,,,
C[C@@H](CN1CC(=O)NC(=O)C1)N1CC(=O)NC(=O)C1 [Dexrazoxane],16.70,42.04,14.98,44.61,,,,
COc1cccc2c1C(=O)c1c(O)c3c(c(O)c1C2=O)C[C@@](O)(C(=O)CO)C[C@@H]3O[C@H]1C[C@H](N)[C@H](O)[C@H](C)O1 [Doxorubicin],-11.25,54.95,-1.25,52.66,,,,
Cn1cc(C2=C(c3cn(C4CCN(Cc5ccccn5)CC4)c4ccccc34)C(=O)NC2=O)c2ccccc21 [Enzastaurin],-3.95,51.57,-0.48,52.28,,,,
COc1cccc2c1C(=O)c1c(O)c3c(c(O)c1C2=O)C[C@@](O)(C(=O)CO)C[C@@H]3O[C@H]1C[C@H](N)[C@@H](O)[C@H](C)O1 [Epirubicin hydrochloride],-8.14,53.51,-28.05,65.95,,,,
C/C(=C\c1csc(C)n1)[C@@H]1C[C@@H]2O[C@]2(C)CCC[C@H](C)[C@H](O)[C@@H](C)C(=O)C(C)(C)[C@@H](O)CC(=O)O1 [Epothilone B (Patupilone)],-5.33,52.21,-7.34,55.68,,,,
Cc1c(C(=O)Nc2ccc(N3C[C@@H](C)O[C@@H](C)C3)nc2)cccc1-c1ccc(OC(F)(F)F)cc1 [Erismodegib],-2.59,50.95,-6.71,55.37,,,,
C#Cc1cccc(Nc2ncnc3cc(OCCOC)c(OCCOC)cc23)c1 [Erlotinib hydrochloride],-99.93,95.90,-12.97,58.47,,,,
C[C@]12CC[C@@H]3c4ccc(OC(=O)N(CCCl)CCCl)cc4CC[C@H]3[C@@H]1CC[C@@H]2OP(=O)(O)O [Estramustine sodium phosphate],,,,,17.18,70.54,20.11,64.39
C=C1C[C@@H]2[C@H](CC[C@]3(C)C(=O)CC[C@@H]23)[C@@]2(C)C=CC(=O)C=C12 [Exemestane],-2.81,51.05,2.16,50.97,,,,
